According to US11174251B2, “Compositions and methods for inhibition of the JAK pathway” (Rigel Pharmaceuticals, Inc., priority 2010, dated 2021):
pIC50: −log10 of the molar value. Counter-ions that a name gives are not always drawn.

Biological target: T1, JAK3 (Homo sapiens, UniProt P52333)
T1 construct: The Ramos B-cell line was acquired from ATCC (ATCC Catalog No. CRL-1596); host or cells: Ramos B-cell line (human)
T1 sequence (P52333 1-1124): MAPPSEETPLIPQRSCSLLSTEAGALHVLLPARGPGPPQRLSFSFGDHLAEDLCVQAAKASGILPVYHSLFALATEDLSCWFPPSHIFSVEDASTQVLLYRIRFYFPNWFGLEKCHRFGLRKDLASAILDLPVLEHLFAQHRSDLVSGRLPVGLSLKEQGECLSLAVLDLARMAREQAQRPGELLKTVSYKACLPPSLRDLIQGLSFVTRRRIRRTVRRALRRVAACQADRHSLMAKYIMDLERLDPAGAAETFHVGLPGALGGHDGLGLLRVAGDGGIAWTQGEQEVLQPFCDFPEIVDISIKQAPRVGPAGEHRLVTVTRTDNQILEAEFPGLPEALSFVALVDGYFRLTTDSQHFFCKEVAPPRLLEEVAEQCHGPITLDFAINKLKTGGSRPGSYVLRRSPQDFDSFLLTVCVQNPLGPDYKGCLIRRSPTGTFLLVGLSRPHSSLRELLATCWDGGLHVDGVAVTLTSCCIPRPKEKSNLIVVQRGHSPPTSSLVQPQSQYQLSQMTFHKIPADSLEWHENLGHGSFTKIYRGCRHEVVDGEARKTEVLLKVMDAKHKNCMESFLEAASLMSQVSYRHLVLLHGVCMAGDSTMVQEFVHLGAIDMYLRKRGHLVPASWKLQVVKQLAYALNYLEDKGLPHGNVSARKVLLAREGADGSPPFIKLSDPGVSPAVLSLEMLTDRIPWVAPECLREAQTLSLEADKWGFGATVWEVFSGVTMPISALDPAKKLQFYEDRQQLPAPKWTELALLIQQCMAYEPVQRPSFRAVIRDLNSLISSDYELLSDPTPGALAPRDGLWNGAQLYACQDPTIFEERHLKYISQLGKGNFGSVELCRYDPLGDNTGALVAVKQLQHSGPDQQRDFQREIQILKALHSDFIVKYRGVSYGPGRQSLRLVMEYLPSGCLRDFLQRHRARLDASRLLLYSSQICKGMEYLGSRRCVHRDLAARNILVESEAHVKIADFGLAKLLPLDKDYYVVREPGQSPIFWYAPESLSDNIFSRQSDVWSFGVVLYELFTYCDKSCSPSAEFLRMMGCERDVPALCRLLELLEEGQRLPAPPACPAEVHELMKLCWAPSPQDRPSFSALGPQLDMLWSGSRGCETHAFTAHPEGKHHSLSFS
Assay: Assay for CD23 expression on Ramos B-cells stimulated by IL-4 (Table IV: ability to inhibit JAK3 activity)
Format: cell-based
Details: tested under conditions described in Example 3 (so in the source)
Summary of the method: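 IL-4-induced CD23 surface expression on human Ramos B cells, detected by flow cytometry after 20–24 h stimulation (IL-4 final 50 units/mL). Compound or DMSO added 1 h beforehand at 37 °C; cells kept in RPMI with 5% serum.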

Row | pIC50 | Structure (SMILES)
1 | > 6.30 | O=c1[nH]c2cc(Nc3nc(Nc4cccc(C(O)C(F)(F)F)c4)ncc3F)ccc2o1 (stereo not shown) [Compound I-210, 5-fluoro-N2-[3-(1-hydroxy-2,2,2-trifluoroethyl)]phenyl-N4-(2-oxo-2,3-dihydro-1,3-benzoxazol-5-yl)-2,4-pyrimidinediamine]
2 | > 6.30 | COc1cc(Nc2ncc(F)c(Nc3ccc4oc(=O)[nH]c4c3)n2)cc(C(F)(F)F)c1 [Compound I-211, 5-fluoro-N2-(3-methoxy-5-trifluoromethyl)phenyl-N4-(2-oxo-2,3-dihydro-1,3-benzoxazol-5-yl)-2,4-pyrimidinediamine]
3 | > 6.30 | COc1ccc(Nc2ncc(F)c(Nc3ccc4oc(=O)[nH]c4c3)n2)cc1C(F)(F)F [Compound I-212, 5-fluoro-N2-(4-methoxy-3-trifluoromethyl)phenyl-N4-(2-oxo-2,3-dihydro-1,3-benzoxazol-5-yl)-2,4-pyrimidinediamine]
4 | > 6.30 | COc1ccc(Nc2ncc(F)c(Nc3ccc4oc(=O)[nH]c4c3)n2)cc1OCC(=O)NC1CC1 [Compound I-213, N2-[3-(cyclopropylaminocarbonylmethoxy)-4-methoxy]phenyl-5-fluoro-N4-(2-oxo-2,3-dihydro-1,3-benzoxazol-5-yl)-2,4-pyrimidinediamine]
5 | < 5.00 | Cc1cc(Nc2ncc(F)c(Nc3ccc4oc(=O)[nH]c4c3)n2)cc(C)c1C [Compound I-214, 5-fluoro-N2-(3,4,5-trimethyl)phenyl-N4-(2-oxo-2,3-dihydro-1,3-benzoxazol-5-yl)-2,4-pyrimidinediamine]
6 | > 6.30 | Cc1cc(Nc2ncc(F)c(Nc3ccc4oc(=O)[nH]c4c3)n2)cc(C)c1F [Compound I-215, N2-(3,5-dimethyl-4-fluoro)phenyl-5-fluoro-N4-(2-oxo-2,3-dihydro-1,3-benzoxazol-5-yl)-2,4-pyrimidinediamine]
7 | > 6.30 | O=c1[nH]c2cc(Nc3nc(Nc4ccc5c(c4)CCC(N4CCCC4)CC5)ncc3F)ccc2o1 (stereo not shown) [II-2, 5-(5-fluoro-2-(7-(pyrrolidin-1-yl)-6,7,8,9-tetrahydro-5H-benzo[7]annulen-2-ylamino)pyrimidin-4-ylamino)benzo[d]oxazol-2(3H)-one diformate salt]
8 | > 6.30 | CN1C/C=C\Cc2ccc(Nc3ncc(F)c(Nc4ccc5oc(=O)[nH]c5c4)n3)cc2C1=O [II-4, (Z)-5-(5-fluoro-2-(2-methyl-1-oxo-1,2,3,6-tetrahydrobenzo[c]azocin-9-ylamino)pyrimidin-4-ylamino)benzo[d]oxazol-2(3H)-one formate salt]
9 | < 5.00 | COC(=O)c1cnc(Nc2ccc3ccccc3c2)nc1Nc1ccc2oc(=O)[nH]c2c1 [II-7, 2-(Naphthalen-2-ylamino)-4-(2-oxo-2,3-dihydro-benzooxazol-5-ylamino)-pyrimidine-5-carboxylic acid methyl ester trifluoroacetate salt]
10 | > 6.30 | Cc1cnc(Nc2ccc3c(c2)C(=O)OC3)nc1Nc1ccc2oc(=O)[nH]c2c1 [II-8, 5-methyl-N4-(2-oxo-2,3-dihydro-1,3-benzoxazol-5-yl)-N2-(1-oxo-1,3-dihydro-isobenzofuran-6-yl)-2,4-pyrimidinediamine]
11 | > 6.30 | Cc1cnc(Nc2ccc3c(c2)COC3)nc1Nc1ccc2oc(=O)[nH]c2c1 [II-9, N2-(1,3-dihydro-isobenzofuran-5-yl)-5-methyl-N4-(2-oxo-2,3-dihydro-1,3-benzoxazol-5-yl)-2,4-pyrimidinediamine]
12 | > 6.30 | Cc1cnc(Nc2ccc3c(c2)COC3=O)nc1Nc1ccc2oc(=O)[nH]c2c1 [II-10, 5-methyl-N4-(2-oxo-2,3-dihydro-1,3-benzoxazol-5-yl)-N2-(1-oxo-1,3-dihydro-isobenzofuran-5-yl)-2,4-pyrimidinediamine]
13 | > 6.30 | Cc1cnc(Nc2ccc3c(c2)C(=O)NC3)nc1Nc1ccc2oc(=O)[nH]c2c1 [II-11, 5-methyl-N4-(2-oxo-2,3-dihydro-1,3-benzoxazol-5-yl)-N2-(1-oxo-1,3-dihydro-2H-isoindol-6-yl)-2,4-pyrimidinediamine]
14 | > 6.30 | Cc1cnc(Nc2ccc(C)c3c2COC3=O)nc1Nc1ccc2oc(=O)[nH]c2c1 [II-12, 5-methyl-N4-(2-oxo-2,3-dihydro-1,3-benzoxazol-5-yl)-N2-(1-oxo-1,3-dihydro-7-methylisobenzofuran-4-yl)-2,4-pyrimidinediamine]
15 | > 6.30 | Cc1cnc(Nc2cc(C)c3c(c2)C(=O)OC3)nc1Nc1ccc2oc(=O)[nH]c2c1 [II-13, 5-methyl-N4-(2-oxo-2,3-dihydro-1,3-benzoxazol-5-yl)-N2-(1-oxo-1,3-dihydro-4-methylisobenzofuran-6-yl)-2,4-pyrimidinediamine]
16 | < 5.00 | Cc1cnc(Nc2ncc(C)c(Nc3ccc4oc(=O)[nH]c4c3)n2)cc1C [II-14, N2-(4,5-dimethylpyridin-2-yl)-5-methyl-N4-(2-oxo-2,3-dihydro-1,3-benzoxazol-5-yl)-2,4-pyrimidinediamine]
17 | 5.30 to 6.30 | Cc1cc(C)nc(Nc2ncc(C)c(Nc3ccc4oc(=O)[nH]c4c3)n2)c1 [II-15, N2-(4,6-dimethylpyridin-2-yl)-5-methyl-N4-(2-oxo-2,3-dihydro-1,3-benzoxazol-5-yl)-2,4-pyrimidinediamine]
18 | < 5.00 | Cc1cnc(Nc2ccc(C#N)c(C)n2)nc1Nc1ccc2oc(=O)[nH]c2c1 [II-16, N2-(5-cyano-6-methylpyridin-2-yl)-5-methyl-N4-(2-oxo-2,3-dihydro-1,3-benzoxazol-5-yl)-2,4-pyrimidinediamine]
19 | > 6.30 | COc1cc(Nc2ncc(C)c(Nc3ccc4oc(=O)[nH]c4c3)n2)ccn1 [II-17, N2-(2-methoxypyridin-4-yl)-5-methyl-N4-(2-oxo-2,3-dihydro-1,3-benzoxazol-5-yl)-2,4-pyrimidinediamine]
20 | > 6.30 | Cc1cc(Nc2ncc(C)c(Nc3ccc4oc(=O)[nH]c4c3)n2)cc(C)n1 [II-19, N2-(2,6-dimethylpyridin-4-yl)-5-methyl-N4-(2-oxo-2,3-dihydro-1,3-benzoxazol-5-yl)-2,4-pyrimidinediamine]
21 | > 6.30 | COc1cccc(Nc2ncc(C)c(Nc3ccc4oc(=O)[nH]c4c3)n2)n1 [II-20, N2-(6-methoxypyridin-2-yl)-5-methyl-N4-(2-oxo-2,3-dihydro-1,3-benzoxazol-5-yl)-2,4-pyrimidinediamine]
22 | 5.30 to 6.30 | Cc1ccc(Nc2ncc(C)c(Nc3ccc4oc(=O)[nH]c4c3)n2)nc1C [II-21, N2-(5,6-dimethylpyridin-2-yl)-5-methyl-N4-(2-oxo-2,3-dihydro-1,3-benzoxazol-5-yl)-2,4-pyrimidinediamine]
23 | 5.30 to 6.30 | Cc1cc(Nc2ncc(C)c(Nc3ccc4oc(=O)[nH]c4c3)n2)ncc1C#N [II-22, N2-(5-cyano-4-methylpyridin-2-yl)-5-methyl-N4-(2-oxo-2,3-dihydro-1,3-benzoxazol-5-yl)-2,4-pyrimidinediamine]
24 | > 6.30 | O=C1NCC=Cc2cc(Nc3ncc(F)c(Nc4ccc5oc(=O)[nH]c5c4)n3)ccc21 [II-23, 5-(5-fluoro-2-(1-oxo-2,3-dihydro-1H-benzo[c]azepin-7-ylamino)pyrimidin-4-ylamino)benzo[d]oxazol-2(3H)-one formate salt]
25 | > 6.30 | O=C1COc2cc(Nc3ncc(F)c(Nc4ccc5oc(=O)[nH]c5c4)n3)ccc2N1 [II-25, 7-(4-(2,3-dihydro-2-oxobenzo[d]oxazol-5-ylamino)-5-fluoropyrimidin-2-ylamino)-2H-benzo[b][1,4]oxazin-3(4H)-one formate salt]
26 | > 6.30 | O=C1CCc2cc(Nc3ncc(F)c(Nc4ccc5oc(=O)[nH]c5c4)n3)ccc2N1 [II-26, 6-(4-(2,3-dihydro-2-oxobenzo[d]oxazol-5-ylamino)-5-fluoropyrimidin-2-ylamino)-3,4-dihydroquinolin-2(1H)-one trifluoroacetate salt]

Row | Structure (SMILES) | pIC50
27 | O=C1CCCCc2cc(Nc3ncc(F)c(Nc4ccc5oc(=O)[nH]c5c4)n3)ccc21 [II-5, 5-(5-fluoro-2-(5-oxo-6,7,8,9-tetrahydro-5H-benzo[7]annulen-2-ylamino)pyrimidin-4-ylamino)benzo[d]oxazol-2(3H)-one formate salt] | > 6.30
28 | O=c1[nH]c2cc(Nc3nc(Nc4ccc5ccccc5c4)ncc3[N+](=O)[O-])ccc2o1 [II-6, 5-(2-(naphthalen-2-ylamino)-5-nitropyrimidin-4-ylamino)benzo[d]oxazol-2(3H)-one trifluoroacetate salt] | < 5.00
